PMC7425875, “Identification of peptides interfering with the LRRK2/PP1 interaction” (PLoS ONE, 2020)
No end group written: not given here.

Experiments:
[1] = Analysis of peptide integrity in human serum (MALDI-TOF MS); format: in vitro ADME; conditions: 37°C, different periods of time, mass spectrometry
Protocol: Peptides were incubated at 37°C in 250 μl of human serum (Sigma Aldrich) for different periods of time. Samples were collected and peptide degradation stopped by freezing. Peptides were extracted from samples using the Proteo Miner Protein Enrichment System (Bio-Rad). Percentage of intact peptide was estimated by mass spectrometry (MS) using MALDI-TOFF as described previously[19] (Bruker Autoflex II) following their protocol. Measurements were performed in triplicate. MS data were analysed using the software Cliprot tools, Felx analysis, Bruker.

LRRK2/PP1 interaction = molecular target: T1, LRRK2/PP1 interaction (Homo sapiens, UniProt P62136); assay: In vitro competition of LRRK2/PP1 interaction in anti-PP1 immunoprecipitates (western blot); format: binding; conditions: 1 mM peptide, 30 min room temperature, MDA-MB231 lysates
T1 construct: MDA-MB231 cells were lysed and cytoplasmic extracts immunoprecipitated with anti-PP1 antibody (Santa Cruz); endogenous in cells; host or cells: MDA-MB231
Protocol: The protocol was previously described. Briefly, cells (5x10^6) were lysed for 20 min at 4°C in lysis buffer (50 mM Tris pH8, 1% NP40, 137 mM NaCl, 1 mM MgCl2, 1 mM CaCl2, 10% glycerol and protease inhibitor mixture Sigma Aldrich). Lysates (500 μg) were immunoprecipitated with the appropriated antibody overnight at 4°C and protein A/G Sepharose (Santa Cruz) was added for 1h at 4°C. After washing with 1x TBST (20 mM Tris-HCl pH7.5, 150 mM NaCl, 0.05% Tween 20), the PP1/LRRK2 interaction was competed using 1 mM of the Mut3DPT-LRRK2-Long or Mut3DPT-LRRK2-Shor peptide for 30 min at room temperature. After several washing steps, immunoprecipitates were separated by SDS-PAGE, transferred to nitrocellulose and blotted with anti PP1 antibody (Santa Cruz or Thermo Fisher 1:500 dilution). The membrane was washed and incubated with PO-conjugates secondary antibody (Dako, 1:1000 dilution). Protein detection was performed using the ECL system (Bio-Rad). As internal control, the blot was also hybridized with anti-LRRK2 antibody (Abcam, ab133474, 1;500 dilution). Western blots were densitometred using Image J. Statistic analysis were done using Anova.

T1 sequence (P62136 whole entry): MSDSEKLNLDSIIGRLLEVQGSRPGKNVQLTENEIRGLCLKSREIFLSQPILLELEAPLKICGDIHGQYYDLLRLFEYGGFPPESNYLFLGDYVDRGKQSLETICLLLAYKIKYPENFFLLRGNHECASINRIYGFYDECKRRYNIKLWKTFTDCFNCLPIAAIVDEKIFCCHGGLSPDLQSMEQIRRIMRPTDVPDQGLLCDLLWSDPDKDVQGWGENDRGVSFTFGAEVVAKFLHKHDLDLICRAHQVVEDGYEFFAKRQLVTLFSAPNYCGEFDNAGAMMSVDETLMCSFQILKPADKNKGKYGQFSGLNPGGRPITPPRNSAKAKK

Resistance to degradation by proteases in human serum [1]	Competition of LRRK2/PP1 interaction (LRRK2 detected in anti-PP1 immunoprecipitates) (LRRK2/PP1 interaction)	Sequence
only very limited degradation	–	THRPPMWSPVWPPMGFWSRLINRLLEISPY [BBB-LRRK2-Long]
–	LRRK2 was detected	VKKKKIKAEIKI [Mut3DPT, Optimized cell penetrating peptide (shuttle alone), derived from DPT-Sh1]
only very limited degradation	–	THRPPMWSPVWPGFWSRLINRLLEI [BBB-LRRK2-Short]
